Source: ChEMBL document CHEMBL4308851, “Alkyl-guanidine Compounds as Potent Broad-Spectrum Antibacterial Agents: Chemical Library Extension and Biological Characterization” (J Med Chem, 2018)
In brackets after ≈: the same amount, converted by molar mass. Activity calls are given as the source filed them. The calls are words filed in the database; no cut-off is given here.

Experiments:
[1] = system: Acinetobacter baumannii; assay: Disruption of Acinetobacter baumannii ATCC 19606 outer membrane integrity assessed as induction of NPN uptake after 30 mins by NPN fluorescence-based assay; format: functional, organism-based; conditions: ATCC 19606 = CIP 70.34 = JCM 6841
[2] = system: Acinetobacter baumannii; assay: Antibiofilm activity against Acinetobacter baumannii ATCC 19606 assessed as effect on biofilm 3D structures at half MIC concentration after 24 hrs by AO-staining based confocal microscopy; format: functional, organism-based; conditions: ATCC 19606 = CIP 70.34 = JCM 6841
[3] = system: Escherichia coli; assay: Antibiofilm activity against Escherichia coli MG1655 ATCC 47076 assessed as effect on biofilm 3D structures at half MIC concentration after 24 hrs by AO-staining based confocal microscopy; format: functional, organism-based; conditions: K-12 substr. MG1655 ATCC 47076
[4] = system: Pseudomonas aeruginosa; assay: Antibiofilm activity against Pseudomonas aeruginosa PAO1 ATCC 15692 at half MIC concentration after 24 hrs by crystal violet-based assay; format: functional, organism-based
[5] = system: Escherichia coli; assay: Antibiofilm activity against Escherichia coli MG1655 ATCC 47076 at half MIC concentration after 24 hrs by crystal violet-based assay; format: functional, organism-based; conditions: K-12 substr. MG1655 ATCC 47076
[6] = system: Acinetobacter baumannii; assay: Antibiofilm activity against Acinetobacter baumannii ATCC 19606 at half MIC concentration after 24 hrs by crystal violet-based assay; format: functional, organism-based; conditions: ATCC 19606 = CIP 70.34 = JCM 6841
[7] = system: Pseudomonas aeruginosa; assay: Antibacterial activity against Pseudomonas aeruginosa ATCC 27853 after 18 hrs by microdilution broth method; format: functional
[8] = system: Acinetobacter baumannii; assay: Antibacterial activity against Acinetobacter baumannii ATCC 17978 after 18 hrs by microdilution broth method; format: functional
[9] = system: Pseudomonas aeruginosa; assay: Disruption of inner membrane integrity in Pseudomonas aeruginosa PAO1 ATCC 15692 co-expressing pMP2200::PrrnB plasmid assessed as induction of OPNG conversion at 256 ug/ml measured at 10 mins intervals for 1 hr; format: functional, organism-based
[10] = system: Pseudomonas aeruginosa; assay: Disruption of Pseudomonas aeruginosa PAO1 ATCC 15692 outer membrane integrity assessed as induction of NPN uptake after 30 mins by NPN fluorescence-based assay; format: functional, organism-based
[11] = Hemolytic activity against human erythrocytes assessed as induction of hemolysis at 64 ug/ml after 30 mins; format: cell-based, Erythrocyte; conditions: read-out: Activity
[12] = system: Streptococcus pyogenes; assay: Antibacterial activity against Streptococcus pyogenes ATCC 12344 after 18 hrs by microdilution broth method; format: functional; conditions: ATCC 12344, 18 h
[13] = system: Bacillus spizizenii; assay: Antibacterial activity against Bacillus subtilis ATCC 6633 after 18 hrs by microdilution broth method; format: functional; conditions: ATCC 6633, 18 h
[14] = system: Escherichia coli; assay: Antibacterial activity against Escherichia coli CCUG after 18 hrs by microdilution broth method
[15] = system: Escherichia coli; assay: Disruption of inner membrane integrity in Escherichia coli MG1655 assessed as induction of […] conversion at 256 ug/ml measured at 10 mins intervals for 1 hr; format: functional, organism-based; conditions: K-12 substr. MG1655
[16] = system: Pseudomonas aeruginosa; assay: Antibiofilm activity against Pseudomonas aeruginosa PAO1 ATCC 15692 assessed as effect on biofilm 3D structures at half MIC concentration after 24 hrs by AO-staining based confocal microscopy; format: functional, organism-based
[17] = system: Staphylococcus aureus; assay: Antibacterial activity against Staphylococcus aureus ATCC 25923 after 18 hrs by microdilution broth method; format: functional; conditions: ATCC 25923, 18 h
[18] = system: Klebsiella pneumoniae; assay: Antibacterial activity against Klebsiella pneumoniae ATCC […] after 18 hrs by microdilution broth method; format: functional
[19] = system: Enterococcus faecalis; assay: Antibacterial activity against Enterococcus faecalis ATCC 19433 after 18 hrs by microdilution broth method; format: functional; conditions: ATCC 19433, 18 h
[20] = system: Escherichia coli; assay: Disruption of Escherichia coli MG1655 ATCC 47076 outer membrane integrity assessed as induction of NPN uptake after 30 mins by NPN fluorescence-based assay; format: functional, organism-based; conditions: K-12 substr. MG1655 ATCC 47076
[21] = system: Acinetobacter baumannii; assay: Disruption of inner membrane integrity in Acinetobacter baumannii ATCC 19606 co-expressing pMP2200::PrrnB plasmid assessed as induction of […] conversion at 256 ug/ml measured at 10 mins intervals for 1 hr; format: functional, organism-based; conditions: ATCC 19606 = CIP 70.34 = JCM 6841
[22] = Apparent permeability of the compound after 5 hrs by PAMPA; format: ADME
[23] = system: Enterobacter cloacae; assay: Antibacterial activity against Enterobacter cloacae isolate VA-417/02 after 18 hrs by microdilution broth method; format: functional; conditions: isolate VA-417/02, 18 h
[24] = system: Burkholderia cepacia; assay: Antibacterial activity against Burkholderia cepacia isolate SI-R2 after 18 hrs by microdilution broth method; format: functional; conditions: isolate SI-R2, 18 h
[25] = system: Acinetobacter baumannii; assay: Antibacterial activity against Acinetobacter baumannii isolate AC-54/97 after 18 hrs by microdilution broth method; format: functional; conditions: isolate AC-54/97, 18 h
[26] = system: Klebsiella pneumoniae; assay: Antibacterial activity against Klebsiella pneumoniae isolate SI-081 after 18 hrs by microdilution broth method; format: functional; conditions: isolate SI-081, 18 h
[27] = system: Stenotrophomonas maltophilia; assay: Antibacterial activity against Stenotrophomonas maltophilia isolate 634/08 after 18 hrs by microdilution broth method; format: functional; conditions: isolate 634/08, 18 h
[28] = in vitro; conditions: human, Caco-2
Description: Efflux ratio of apparent permeability in human Caco2 cells at 10 uM after 120 mins by LC-MS/MS analysis

[29] = system: Escherichia coli; assay: Antibacterial activity against Escherichia coli CCUG after 24 hrs by microdilution broth method; format: functional
[30] = system: Escherichia coli; assay: Bactericidal activity against Escherichia coli CCUG assessed as log reduction in CFU at 2 times MIC concentration after 1 hr by time kill assay; format: functional

N=C(N)NCCCCCCCCNCCCCCCCCNC(=N)NCC1CC1
Activity [1]: Dose-dependent effect | Activity [2]: inactive | Activity [3]: inactive | Activity [4]: inactive | Activity [5]: inactive | Activity [6]: inactive | MIC ([7]; ATCC 27853, 18 h): > 64 µg/mL | MIC ([8]; ATCC 17978, 18 h): > 64 µg/mL | Activity [9]: inactive | Activity [10]: Dose-dependent effect | hemolysis at 0.5 h, 64 ug/ml [11]: 0 to 7% | MIC [12]: > 64 µg/mL | MIC [13]: 64 µg/mL (≈ 156 µM) | MIC [14]: 64 µg/mL (≈ 156 µM) | Activity [15]: inactive | Activity [16]: inactive | MIC [17]: > 64 µg/mL | MIC [18]: > 64 µg/mL | MIC [19]: > 64 µg/mL | Activity [20]: Dose-dependent effect | Activity [21]: inactive

CO[C@H]1/C=C/O[C@@]2(C)Oc3c(C)c(O)c4c(O)c(c5c(nc6cc(C)ccn65)c4c3C2=O)NC(=O)/C(C)=C\C=C\[C@H](C)[C@H](O)[C@@H](C)[C@@H](O)[C@@H](C)[C@H](OC(C)=O)[C@@H]1C [RIFAXIMIN]
Papp at 5 h [22]: 0.06 ×10⁻⁶ cm/s

N=C(NCCCCCCCCN(CCCCCCCCNC(=N)NCC1CC1)C(=O)N(CCCCCCCCNC(=N)NCC1CC1)CCCCCCCCNC(=N)NCC1CC1)NCC1CC1
Activity [1]: Dose-dependent effect | Activity [2]: inactive | Activity [3]: inactive | MIC [23]: 4 µg/mL (≈ 4.2 µM) | Activity [4]: inactive | MIC [24]: 32 µg/mL (≈ 33.6 µM) | MIC [25]: 8 µg/mL (≈ 8.39 µM) | Activity [5]: inactive | Activity [6]: inactive | MIC ([7]; ATCC 27853, 18 h): 64 µg/mL (≈ 67.1 µM) | MIC ([8]; ATCC 17978, 18 h): 8 µg/mL (≈ 8.39 µM) | Activity [9]: inactive | Activity [10]: Dose-dependent effect | hemolysis at 0.5 h, 64 ug/ml [11]: 0 to 7% | MIC [12]: 2 µg/mL (≈ 2.1 µM) | MIC [13]: 8 µg/mL (≈ 8.39 µM) | MIC [14]: 16 µg/mL (≈ 16.8 µM) | Activity [15]: inactive | MIC [26]: 4 µg/mL (≈ 4.2 µM) | Activity [16]: inactive | MIC [17]: 16 µg/mL (≈ 16.8 µM) | MIC [18]: 4 µg/mL (≈ 4.2 µM) | MIC [19]: 4 µg/mL (≈ 4.2 µM) | Activity [20]: Dose-dependent effect | MIC [27]: 8 µg/mL (≈ 8.39 µM) | Activity [21]: inactive

CC(C)NCC(O)COc1cccc2ccccc12 (stereo unspecified) [PROPRANOLOL]
efflux ratio at 2 h, 10 µM [28]: 0.4

COLISTIN
MIC [29]: 0.5 µg/mL | MIC [7]: 0.5 µg/mL | MIC [8]: 1 µg/mL | MIC [18]: 0.5 µg/mL | Activity [30]: Active

N=C(N)NCCCCCCCCCCN(CCCCCCCCCCNC(=N)NCC1CC1)C(=O)N(CCCCCCCCCCNC(=N)N)CCCCCCCCCCNC(=N)NCC1CC1
Activity [1]: Dose-dependent effect | Activity [2]: inactive | Activity [3]: inactive | Activity [4]: inactive | Activity [5]: inactive | Activity [6]: inactive | MIC ([7]; ATCC 27853, 18 h): 64 µg/mL (≈ 66.8 µM) | MIC ([8]; ATCC 17978, 18 h): 64 µg/mL (≈ 66.8 µM) | Activity [9]: inactive | Activity [10]: Dose-dependent effect | hemolysis at 0.5 h, 64 ug/ml [11]: 41 to 54% | MIC [12]: 4 µg/mL (≈ 4.18 µM) | MIC [13]: 2 µg/mL (≈ 2.09 µM) | MIC [14]: 16 µg/mL (≈ 16.7 µM) | Activity [15]: inactive | Activity [16]: inactive | MIC [17]: 8 µg/mL (≈ 8.35 µM) | MIC [18]: 8 µg/mL (≈ 8.35 µM) | MIC [19]: 4 µg/mL (≈ 4.18 µM) | Activity [20]: Dose-dependent effect | Activity [21]: inactive

N=C(N)NCCCCCCCCN(CCCCCCCCNC(=N)N)C(=O)N(CCCCCCCCNC(=N)N)CCCCCCCCNC(=N)N
Activity [1]: Dose-dependent effect | Activity [2]: inactive | Activity [3]: inactive | Activity [4]: inactive | Activity [5]: inactive | Activity [6]: inactive | MIC ([7]; ATCC 27853, 18 h): 32 µg/mL (≈ 43.4 µM) | MIC ([8]; ATCC 17978, 18 h): 16 µg/mL (≈ 21.7 µM) | Activity [9]: inactive | Activity [10]: Dose-dependent effect | hemolysis at 0.5 h, 64 ug/ml [11]: 0 to 7% | MIC [12]: 1 µg/mL (≈ 1.36 µM) | MIC [13]: 32 µg/mL (≈ 43.4 µM) | MIC [14]: 4 µg/mL (≈ 5.43 µM) | Activity [15]: inactive | Activity [16]: inactive | MIC [17]: 2 µg/mL (≈ 2.71 µM) | MIC [18]: 32 µg/mL (≈ 43.4 µM) | MIC [19]: 2 µg/mL (≈ 2.71 µM) | Activity [20]: Dose-dependent effect | Activity [21]: inactive
